Measured values from patent US20250186425A1, “PPARG INVERSE AGONISTS AND USES THEREOF” (Flare Therapeutics Inc., priority 2022, published 2025).

How the values were obtained:
[1] = biological target: T1, PPARG/RXRA LBD heterodimer (Homo sapiens (Human), UniProt P37231); assay: PPARG-NCOR1 recruitment assay (TR-FRET); format: biochemical; settings: for EC50: TR-FRET, biotinylated NCOR1 ID2 peptide, 80 nM Rosiglitazone, 3 hours, read-out: PPARG-NCOR recruitment assay EC50; for % NCOR recruitment relative to T907: maximal extent, T0070907 defined as 100%, DMSO 0%
Experimental: Compound potency (EC50) and maximal extent of NCOR1 recruitment to PPARG were assessed a TR-FRET binding assay measuring association of a biotinylated NCOR1 ID2 peptide (Biotin-[…]-amide) to PPARG/RXRA LBD heterodimer. Specifically, a 20 microliters of TR-FRET master mix consisting of 2 nM WT PPARG LBD (e. coli expressed, His-TEV-Q203-Y477; Uniprot ID P37231-2), 2 nM WT RXRA LBD or mutant S427F RXRA LBD (e. coli expressed, Flag-TEV-E228-T462; […]. Mixtures were incubated for 3 hours and read in an EnVision plate reader (Perkin Elmer) with Ex/Em 615/665. To determine the potency (EC50) and extent of NCOR1 recruitment, TR-FRET ratios were normalized to the average ratio of DMSO control wells (0%) and to the average maximum ratio for positive control compound (T0070907 (2-chloro-5-nitro-N-4-pyridinyl-benzamide); defined as 100%) in CDD Vault and analyzed using the Levenberg-Marquardt algorithm.

[2] = biological target: T1, PPARG/RXRA LBD heterodimer; assay: PPARG-MED1 blockade assay (TR-FRET); format: biochemical; settings: for EC50: TR-FRET, biotinylated MED1 LxxLL peptide, 80 nM Rosiglitazone, 3 hours, IC50; for % MED1 blockade relative to GW9662: maximal extent, GW9662 defined as 100%, DMSO 0%
Experimental: Compound potency (IC50) and maximal extent of MED1 repulsion to PPARG were assessed a TR-FRET binding assay measuring association of a biotinylated MED1 LxxLL peptide (Biotin-[…]-amide) to PPARG/RXRA LBD heterodimer. Specifically, a 20 microliters of TR-FRET master mix consisting of 2 nM WT PPARG LBD (e. coli expressed, His-TEV-Q203-Y477; Uniprot ID P37231-2), 2 nM WT RXRA LBD (e. coli expressed, Flag-TEV-E228-T462; […]. Mixtures were incubated for 3 hours and read in an EnVision plate reader (Perkin Elmer) with Ex/Em 615/665. To determine the potency (IC50) and extent of MED1 repulsion, TR-FRET ratios were normalized to the average ratio of DMSO control wells (0%) and to the average minimum ratio for positive control compound (GW9662 (2-chloro-5-nitrobenzanilide); defined as 100%) in CDD Vault and analyzed using the Levenberg-Marquardt algorithm.

[3] = test system: HT1197 (RXRA S427F mutation) cells; assay: Bladder cancer pharmacodynamic assay, HT1197 cell assay (qPCR of PPARG target gene ANGPTL4); format: cell-based; settings: Homo sapiens; for inhibition at 0.1 µM: 100 nM compound, 24 hours, relative to DMSO control; for EC50: 24 hours treatment, qPCR
Experimental: 5637 (PPARG amplified) and HT1197 (RXRA S427F mutation) cells were used for assessment of modulation of PPARG target genes using quantitative PCR. Cells were treated for 24 hours with PPARG inverse agonists prior to analysis of FABP4 (IDT, Cat: Hs.PT 58.20106818) and ANGPTL4 (IDT, Cat: Hs.PT 58.25480012) expression, with expression of the housekeeping gene TBP (IDT, Cat: Hs.PT 58v.39858774) used to normalize expression across samples. Quantitative PCR was performed using an ABI QuantStudio 7 Flex Reaction system. Data were analyzed and reported relative to DMSO control using the comparative Ct method […].

T1 sequence (P37231 whole entry, looked up, the tested form may be a part): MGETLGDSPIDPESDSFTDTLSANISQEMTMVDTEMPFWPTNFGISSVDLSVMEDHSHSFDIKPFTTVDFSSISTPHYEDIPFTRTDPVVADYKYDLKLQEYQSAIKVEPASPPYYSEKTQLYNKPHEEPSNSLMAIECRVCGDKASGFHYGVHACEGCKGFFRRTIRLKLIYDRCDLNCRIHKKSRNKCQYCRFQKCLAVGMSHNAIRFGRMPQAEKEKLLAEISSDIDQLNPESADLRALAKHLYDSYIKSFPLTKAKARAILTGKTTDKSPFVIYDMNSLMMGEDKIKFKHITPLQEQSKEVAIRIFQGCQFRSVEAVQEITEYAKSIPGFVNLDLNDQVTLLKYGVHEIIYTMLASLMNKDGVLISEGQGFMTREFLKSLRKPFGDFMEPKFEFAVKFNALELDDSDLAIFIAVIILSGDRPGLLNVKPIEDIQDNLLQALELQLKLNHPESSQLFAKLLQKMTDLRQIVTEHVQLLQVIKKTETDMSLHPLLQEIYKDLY
T1 sequence (P19793 whole entry partner, looked up, the tested form may be a part): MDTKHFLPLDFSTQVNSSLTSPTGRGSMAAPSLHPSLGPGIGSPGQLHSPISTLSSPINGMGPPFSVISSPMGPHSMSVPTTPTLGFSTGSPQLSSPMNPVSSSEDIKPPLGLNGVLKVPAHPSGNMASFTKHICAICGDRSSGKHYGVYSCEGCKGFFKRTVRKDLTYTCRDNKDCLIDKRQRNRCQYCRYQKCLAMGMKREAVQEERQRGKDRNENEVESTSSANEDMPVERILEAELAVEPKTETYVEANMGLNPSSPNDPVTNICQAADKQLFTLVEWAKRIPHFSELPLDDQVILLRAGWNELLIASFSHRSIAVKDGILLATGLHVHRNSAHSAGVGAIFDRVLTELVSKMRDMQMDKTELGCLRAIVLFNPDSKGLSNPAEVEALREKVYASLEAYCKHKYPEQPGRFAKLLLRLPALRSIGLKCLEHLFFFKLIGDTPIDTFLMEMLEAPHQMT

In the case of `Cn1cc(Oc2cc(F)cc3[nH]c(-c4cc(C#N)ccc4S(C)(=O)=O)cc(=O)c23)cn1` [Example 3, 3-(7-Fluoro-5-((1-Methyl-1H-Pyrazol-4-Yl)Oxy)-4-Oxo-1,4-Dihydroquinolin-2-Yl)-4-(Methylsulfonyl)Benzonitrile], the EC50 [1] is reported as 1000 to 10000 nM, the “% NCOR recruitment relative to T907” value [1] is reported as “A (A: >100% (>the control compound, T907))” and the EC50 [2] is reported as 1000 to 10000 nM. For the same compound, the “% MED1 blockade relative to GW9662” value [2] was “A (A: >100% (>the control compound, GW9662))” and the inhibition at 0.1 µM [3] was 82%.
For `N#Cc1ccc(Cl)c(-c2cc(=O)c3c(Oc4ccc(Cl)cc4)cc(F)cc3[nH]2)c1` [Example 2, 4-Chloro-3-(5-(4-Chlorophenoxy)-7-Fluoro-4-Oxo-1,4-Dihydroquinolin-2-Yl)Benzonitrile], the EC50 [1] was 100 to 1000 nM, the “% NCOR recruitment relative to T907” value [1] was “A (A: >100% (>the control compound, T907))” and the EC50 [2] was 100 to 1000 nM. For the same compound, the “% MED1 blockade relative to GW9662” value [2] was “B (B: <100% (<the control compound, GW9662))” and the inhibition at 0.1 µM [3] was 91%.
With `N#Cc1ccc(Cl)c(-c2cc(=O)c3c(Oc4ccc(Cl)nc4)cc(F)cc3[nH]2)c1` [Example 5, 4-Chloro-3-(5-((6-Chloropyridin-3-Yl)Oxy)-7-Fluoro-4-Oxo-1,4-Dihydroquinolin-2-Yl)Benzonitrile] the EC50 [1] was 100 to 1000 nM, the “% NCOR recruitment relative to T907” value [1] was “A (A: >100% (>the control compound, T907))” and the EC50 [2] was 100 to 1000 nM. The “% MED1 blockade relative to GW9662” value [2] was “A (A: >100% (>the control compound, GW9662))” and the inhibition at 0.1 µM [3] was 77%.
In the case of `CS(=O)(=O)c1ccc(C#N)cc1-c1cc(=O)c2c(Cc3ccc(Cl)cc3)cc(F)cc2[nH]1` [Example 7, 3-(5-(4-Chlorobenzyl)-7-Fluoro-4-Oxo-1,4-Dihydroquinolin-2-Yl)-4-(Methylsulfonyl)Benzonitrile], the EC50 [1] is reported as 10 to 100 nM, the “% NCOR recruitment relative to T907” value [1] is reported as “A (A: >100% (>the control compound, T907))” and the EC50 [2] is reported as 100 to 1000 nM. For the same compound, the “% MED1 blockade relative to GW9662” value [2] was “A (A: >100% (>the control compound, GW9662))” and the inhibition at 0.1 µM [3] was 90%.
With `Cn1cc(Oc2cc(Cl)cc3[nH]c(-c4cc(C#N)ccc4S(C)(=O)=O)cc(=O)c23)cn1` [Example 4, 3-(7-Chloro-5-((1-Methyl-1H-Pyrazol-4-Yl)Oxy)-4-Oxo-1,4-Dihydroquinolin-2-Yl)-4-(Methylsulfonyl)Benzonitrile] the EC50 [1] was 100 to 1000 nM, the “% NCOR recruitment relative to T907” value [1] was “A (A: >100% (>the control compound, T907))” and the EC50 [2] was 100 to 1000 nM. The “% MED1 blockade relative to GW9662” value [2] was “A (A: >100% (>the control compound, GW9662))”, the inhibition at 0.1 µM [3] was 86% and the EC50 [3] was 0.35 nM.
In the case of `CS(=O)(=O)c1ccc(C#N)cc1-c1cc(=O)c2c(Oc3ccc(Cl)cc3)cc(F)cc2[nH]1` [Example 1, 3-(5-(4-Chlorophenoxy)-7-Fluoro-4-Oxo-1,4-Dihydroquinolin-2-Yl)-4-(Methylsulfonyl)Benzonitrile], the EC50 [1] is reported as 100 to 1000 nM, the “% NCOR recruitment relative to T907” value [1] is reported as “A (A: >100% (>the control compound, T907))” and the EC50 [2] is reported as 100 to 1000 nM. For the same compound, the “% MED1 blockade relative to GW9662” value [2] was “A (A: >100% (>the control compound, GW9662))”, the inhibition at 0.1 µM [3] was 85% and the EC50 [3] was 0.8 nM.
In the case of `N#Cc1ccc(Cl)c(-c2cc(=O)c3c(OCc4ccc(Cl)cc4)cc(F)cc3[nH]2)c1` [Example 6, 4-Chloro-3-(5-((4-Chlorobenzyl)Oxy)-7-Fluoro-4-Oxo-1,4-Dihydroquinolin-2-Yl)Benzonitrile], the EC50 [1] is reported as 100 to 1000 nM, the “% NCOR recruitment relative to T907” value [1] is reported as “A (A: >100% (>the control compound, T907))” and the EC50 [2] is reported as 100 to 1000 nM. For the same compound, the “% MED1 blockade relative to GW9662” value [2] was “A (A: >100% (>the control compound, GW9662))” and the inhibition at 0.1 µM [3] was 25%.
